In patent US20230040081A1 (priority 2019, published 2023):
Values joined by “and” are separate entries in the source; they are usually repeats but may differ in a detail not shown here. Identical values can stand only once.

B1: vRNAP elongation scaffold (template DNA/non-template DNA/RNA) (mixed)
DNA 1: GACTTATGATCGGATAAGAGTCCAGCCAATGACAGATGCCTCATAGCC
DNA 2: GGCTATGAGGCATCCCATGCGTTGAGGACTCTTATCCGATCATAAGTC
RNA: GAGUUGUAAUAACAAGGGAAAUGUCAUUGGC
modifications: RNA 5'-triphosphate

Assays:
Clopt1 (Vaccinia virus) [1] = assay type: cell-based
Clopt1 (Vaccinia virus) [2] = assay type: cell-based; remark: listed apart in the source
viral RNA polymerase [3] = assay: Potential inhibitors: Results Screen; assay type: biochemical; settings: test concentration not given
Protocol: (§1) Compound stocks were prepared at a concentration of 1 mM in 65% DMSO, at a volume of 5 μL each.

viral RNA polymerase [4] = assay: Potential inhibitors: Results Hit validation; assay type: biochemical; settings: test concentration not given
Protocol: as §1

[5] = target: Vaccinia RNA polymerase core enzyme (Rpo147/Rpo132/Rpo35/Rpo30/Rpo22/Rpo19/Rpo18/Rpo7) (Vaccinia virus (GLV-1h439, Lister …, UniProt P07392;Q76ZP7;P24757;P21603;P68609;P68611;P04310;P68317 …)); assay: structure; settings: tags: HA/FLAG C-terminal on Rpo132

Row | Molecule | Results Screen Median Screen (% inhibition) (viral RNA polymerase [3]) | Results Hit validation Median (% inhibition) (viral RNA polymerase [4]) | further results
1 | NC(=O)CC[C@H](N)C(=O)O [glutamine, L-glutamine] |  |  | intensity, times lower without glutamine in the third medium switch than counterparts (Clopt1 (Vaccinia virus) [1]): roughly 100 times; final intensity, times lower in glutamine absence than in glutamine fed samples (Clopt1 (Vaccinia virus) [1]; after 21 hours): over 100 times; Factor (Clopt1 (Vaccinia virus) [2]): 1222 and 1468 and 1774 and 2000; virus replication, times higher with glutamine in the third medium switch than negative counterparts (Clopt1 (Vaccinia virus) [2]): more than 1000 times
2 | C[C@]1(C(=O)O)CC[C@@]2(C)CC[C@@]3(C)C4=CC(=O)c5cc(O)c(O)cc5[C@@]4(C)CC[C@]3(C)[C@H]2C1 [AD153413-04_H6] | 77 % inhibition | 52.2 % inhibition | 
3 | COC(=O)[C@H](Cc1ccccc1)NC(=O)c1ccccc1 [AD153413-18_A11] | 81 % inhibition | 60.6 % inhibition | 
4 | CC[C@H](C1=C(O)C(C)(C)C(=O)C(C)(C)C1=O)c1c(O)cc(O)c(C(=O)C(C)C)c1O [AD153413-09_B9] | 85.2 % inhibition | 61.5 % inhibition | 
5 | CC(=O)O[C@H]1CC[C@]2(C)C(CC[C@@]3(C)C2[C@@H](O)C=C2[C@@H]4[C@H](C)[C@@H](C)CC[C@@]4(C)CC[C@@]23C)[C@]1(C)C(C)=O (stereo partly shown) [AD153413-25_A8] | 73.8 % inhibition | 86.3 % inhibition | 
6 | OC[C@@H]1O[C@H](Oc2ccc(O)c3cccc(O)c23)[C@@H](O)[C@H](O)[C@H]1O [AD153413-14_C5] | 63.3 % inhibition | 52.6 % inhibition | 
7 | O=C(/C=C/c1ccc(O)c2c1C(C(=O)O)C(c1ccc(O)c(O)c1)O2)OC(Cc1ccc(O)c(O)c1)C(=O)O (stereo not shown) [AD153413-16_E3] | 77.7 % inhibition | 55.9 % inhibition | 
8 | C/C=C/c1ccc2c(c1)[C@H](C)[C@@H](c1ccc(O)cc1)O2 [AD153413-19_H4] | 98.8 % inhibition | 50.8 % inhibition | 
9 | C=C(C)C1=C[C@@]2(C)C(=CC1=O)CC[C@@H](O)[C@@H]2C [AD153413-10_F2] | 80 % inhibition | 50.8 % inhibition | 
10 | COc1cc(O)c2c(=O)c(O[C@H]3O[C@H](C)[C@@H](O)[C@H](O)[C@@H]3O)c(-c3ccc(O)cc3)oc2c1O [AD153413-05_B3] | 72.4 % inhibition | 43.6 % inhibition | 
11 | COc1cc(C2OC(c3cc(OC)c(OC)c(OC)c3)C(C)C2C)cc(OC)c1OC (stereo not shown) [AD153413-14_E9] | 67.1 % inhibition | 43.8 % inhibition | 
12 | B1 |  |  | binding result [5]: binds
